Results taken from US8840939B2, “Vigna unguiculata seed extract and compositions containing same” (Laboratoires Expanscience, priority 2009, dated 2014).

Assays:
[1] = tested on: IL1α; test: Release of IL1α by PMA-stimulated keratinocytes (ELISA); assay type: cell-based, Human; details: 10^−7 M dexamethasone, NCTC2544 keratinocytes, 0.1 μg/ml PMA 24 hours
Description: (§1) The anti-inflammatory effect of Vigna hydrolysate was evaluated by measuring the cytokines (IL1α, IL8) produced by keratinocytes in response to stimulation by PMA.
(§2) Human keratinocytes (NCTC2544 cell line) were preincubated for 24 hours with 0.05% (w/v) Vigna hydrolysate or the reference molecule (10^−7 M dexamethasone). The cells were then treated with 0.1 μg/ml PMA, always in the presence of Vigna hydrolysate or dexamethasone, for 24 hours. The quantities of IL1α and IL8 released in the culture medium were evaluated by ELISA.
(§3) The results were analyzed statistically by one-way analysis of variance (ANOVA) followed by Tukey's test:
(§4) The percentage of inhibition in relation to the stimulated control (PMA) was calculated.

[2] = tested on: IL8; test: Release of IL8 by PMA-stimulated keratinocytes (ELISA); assay type: cell-based, Human; details: 10^−7 M dexamethasone, NCTC2544 keratinocytes, 0.1 μg/ml PMA 24 hours
Description: as §1, §2, §3, §4

[3] = tested on: elastin; test: Gene expression of elastin by fibroblasts (RT-PCR); assay type: cell-based; details: 5 ng/ml TGFβ1, normal human fibroblasts, 24 hours
Description: (§5) The effect of Vigna hydrolysate on the modulation of the extracellular matrix of the dermis was evaluated on a dermal fibroblast model wherein the gene expression of elastin and MMP1 was studied.
(§6) Normal human fibroblasts were treated for 24 hours with 0.01% and 0.05% (w/v) Vigna hydrolysate or with 5 ng/ml TGFβ1 (reference). The gene expression of elastin and MMP1 was analyzed by quantitative real-time RT-PCR.
(§7) The results were analyzed statistically by one-way analysis of variance (ANOVA) followed by Dunnett's test:
(§8) The level of gene expression was expressed in relative quantity (RQ) and the effect of the treatment in relation to the control cells in percentage of increase or inhibition.

[4] = tested on: MMP1; test: Gene expression of MMP1 by fibroblasts (RT-PCR); assay type: cell-based; details: 5 ng/ml TGFβ1, normal human fibroblasts, 24 hours
Description: as §5, §6, §7, §8

| Compound | IL1α [1] [pg/mL] | inhibition at 0.1 µM ([1]; Homo sapiens, NCTC-2544, read-out: IL1α, percentage of inhibition in relation to the stimulated control (PMA) (converted)) [%] | IL8 [2] [ng/mL] | inhibition at 0.1 µM ([2]; Homo sapiens, NCTC-2544, read-out: IL8, percentage of inhibition in relation to the stimulated control (PMA) (converted)) [%] | ELASTIN gene expression, percentage of increase in relation to the control cells [3] | ELASTIN gene expression, relative quantity (RQ) [3] | MMP1 gene expression, percentage of inhibition in relation to the control cells [4] [%] | MMP1 gene expression, relative quantity (RQ) [4] |
| --- | --- | --- | --- | --- | --- | --- | --- | --- |
| C[C@@H]1C[C@H]2[C@@H]3CCC4=CC(=O)C=C[C@]4(C)[C@@]3(F)[C@@H](O)C[C@]2(C)[C@@]1(O)C(=O)CO [dexamethasone] | 14.0 ± 3.5 | 82 | 6.0 ± 0.2 | 81 |  |  |  |  |
| TGFβ1: 5 ng/ml TGFβ1 (reference) |  |  |  |  | +559% | 6.59 | −88 | 0.12 |
